Assay results: patent publication US20090253634A1, “Methods and Compositions for the Treatment of Gastrointestinal Disorders” (MICROBIA, INC., priority 2005, published 2009)
Read-outs that look alike come from different tables or passages of the source. Bridge positions count the residues as written; N and C are the ends. Peptide text beside a SMILES is read from it.

Tests used:
[1] = oral bioavailability in rats, radioimmunoassay (RIA) detection; conditions: female, CD, rat, in vivo
Method: Oral bioavailability was also determined using a radioimmunoassay (RIA) detection method. Female CD-1 mice (Charles River, Wilmington, Mass.) weighing approximately 25g (7-8 weeks old) or female CD rats (Charles River, Wilmington, Mass.) weighing approximately 153 g were included in this study. Monoclonal antibody, 20C1 (Brandwein et al. 1985 Infect Immun. 47:242-246), which recognizes SEQ ID NO:7 and ^125I labeled-SEQ ID NO:7, a labeled tracer, were used in these experiments. The labeled tracer was purified by HPLC using a Waters C-18u Bondapak® column (25 cm) previously equilibrated with 10 mM ammonium acetate pH 5.8. A gradient from 0 to 25% acetonitrile was applied to the column in 60 min, followed by isocratic elution at 25% acetonitrile for another 20 min. This method separated two monoiodinated forms from each other and from unlabeled precursor (Thompson et al. 1985 Anal Biochem. 148:26-36). […] The labeled tracer bad a specific activity of 2200 Ci/mmol. The tracer was stored in aliquots at −20° C. Animals were fasted overnight before administration of compounds. Animals received SEQ ID NO:3 (rats—10 mg/kg; mice 8 mg/kg) or vehicle alone (20 mM Tris-HCl, ph7.5) intravenously or orally. Blood was drawn from all dosed animals by retro-orbital eye bleeding at specific intervals and test compound levels were analyzed by radioimmunoassay (RIA). SEQ ID NO:3 was extracted from the serum or plasma using Amersham Biosciences Amprep C18 columns (100 mg). Samples (80 μL) were first diluted to 0.5 mL with start buffer (8% methanol, 0.095% TFA in water) and applied to C18 columns previously conditioned with 1 mL methanol and equilibrated with 2 mL of start buffer. […] Radioactivity was measured in a LS 6500 scintillation counter (Beckman-Coulter). The binding efficiency is defined as the percent radioactivity in the B0 sample compared to the input counts. The percent bound in each sample was calculated by the equation: […]
A standard curve was prepared by plotting % B/B0 as a function of the log SEQ ID NO:3 concentration. […] Oral Bioavailabilty (F) is calculated using the equation: […]

guanylate cyclase C = target: T1, guanylate cyclase C (Mus musculus, UniProt Q3UWA6); assay: competition binding assay on intestinal epithelial cells of wild-type and GC-C KO mice; conditions: GC-C KO mice compared to wild-type mice; 125I-SEQ ID NO:3
T1 construct: isolated intestinal epithelial cells from two female wild-type and two female GC-C KO mice; from tissue; host or cells: mouse intestinal epithelial cells (homogenised), wild-type; GC-C KO mice as control
T1 sequence (Q3UWA6 20-1072): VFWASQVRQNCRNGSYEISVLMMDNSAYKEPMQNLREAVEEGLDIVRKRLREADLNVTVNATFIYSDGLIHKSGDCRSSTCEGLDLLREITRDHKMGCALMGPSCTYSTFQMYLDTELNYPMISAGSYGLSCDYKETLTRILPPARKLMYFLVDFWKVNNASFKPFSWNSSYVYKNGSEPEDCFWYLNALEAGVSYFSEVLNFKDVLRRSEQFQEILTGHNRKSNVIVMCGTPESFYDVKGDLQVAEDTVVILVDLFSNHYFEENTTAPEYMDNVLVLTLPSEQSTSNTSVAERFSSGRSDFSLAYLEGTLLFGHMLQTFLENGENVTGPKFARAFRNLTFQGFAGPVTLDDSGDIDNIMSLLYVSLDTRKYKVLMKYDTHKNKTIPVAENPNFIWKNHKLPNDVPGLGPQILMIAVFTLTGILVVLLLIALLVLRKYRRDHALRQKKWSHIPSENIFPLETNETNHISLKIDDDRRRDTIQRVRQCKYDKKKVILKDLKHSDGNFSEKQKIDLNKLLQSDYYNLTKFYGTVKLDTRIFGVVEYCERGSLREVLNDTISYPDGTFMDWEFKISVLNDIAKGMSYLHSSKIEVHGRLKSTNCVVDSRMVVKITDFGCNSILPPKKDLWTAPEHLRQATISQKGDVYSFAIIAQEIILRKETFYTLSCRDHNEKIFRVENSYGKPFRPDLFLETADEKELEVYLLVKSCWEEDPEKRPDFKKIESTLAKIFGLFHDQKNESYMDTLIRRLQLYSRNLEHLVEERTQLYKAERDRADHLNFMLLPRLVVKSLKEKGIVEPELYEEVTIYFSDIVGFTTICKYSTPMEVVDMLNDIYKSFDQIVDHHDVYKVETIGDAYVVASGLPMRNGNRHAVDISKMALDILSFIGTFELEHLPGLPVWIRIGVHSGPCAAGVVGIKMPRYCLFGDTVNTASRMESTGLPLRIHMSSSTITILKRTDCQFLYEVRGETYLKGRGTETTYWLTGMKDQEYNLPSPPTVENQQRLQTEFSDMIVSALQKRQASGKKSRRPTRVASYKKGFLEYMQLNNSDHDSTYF
Method: Mouse intestinal epithelial cells were prepared identical to that above as for rat intestinal epithelial cells except the cells were homogenized with an Omni homogenizer for 20 seconds on the maximum setting to make a suspension of cells. A competition binding assay was performed identical to that described above between ^125I labeled SEQ ID NO:3 and unlabeled SEQ ID NO:3 (competitor).

Compound `C[C@@H]1NC(=O)[C@@H]2CCCN2C(=O)[C@H](CC(N)=O)NC(=O)[C@@H]2CSSC[C@H](N)C(=O)N[C@H]3CSSC[C@H](NC1=O)C(=O)N[C@@H]([C@@H](C)O)C(=O)NCC(=O)N[C@H](C(=O)N[C@@H](Cc1ccc(O)cc1)C(=O)O)CSSC[C@H](NC(=O)[C@H](Cc1ccc(O)cc1)NC(=O)[C@H](CCC(=O)O)NC3=O)C(=O)N2` [SEQ ID NO:3] (H-CCEYCCNPACTGCY-OH; disulfide 1-6, 2-10, 5-13; N-terminus and C-terminus assumed) has an AUC ([1]; 10 mg/kg intravenous, read-out: AUCi.v.,(0-6h) (converted)) of 23700 ng·h/mL, an AUC ([1]; 10 mg/kg oral, read-out: AUCp.o.,(0-6h) (converted)) of 48.3 ng·h/mL and a bioavailability ([1]; oral, 10 mg/kg, over 6 hours) of 0.2%. For the same compound, the “binding to intestinal epithelial cells” value (guanylate cyclase C) was “reduction in SEQ ID NO:3 binding”.
